Assay results: patent US20040077674A1, “Mappicine analogs, intermediates in the synthesis of mappicine analogs and methods of synthesis of mappicine analogs” (priority 2002, published 2004)

Assays:
[1] = molecular target: T1, RNase H activity of HIV reverse transcriptase (Human immunodeficiency virus type 1 group M subtype B, UniProt P03366); assay: Fluorescence (FRET)-based RNase H assay of HIV reverse transcriptase; type: biochemical, HIV-1; details: for Residual activity (%) RNase H: 10 μM inhibitor concentration, activity in presence / in absence of analog x 100; for % inhibition of RNase H at 20 μM: 20 μM inhibitor concentration
T1 construct: 2.5 nM of the p51/p66 RT heterodimer in the assay; made in house
Method: Recently, a fluorescence-based assay to perform screens in search of HIV RNase H inhibitors has been developed. The assay, which is carried out in 96-well microplates and is adaptable to robotics, is the first high-throughput screen for RNase H and is described in further detail in the Experimental section. HIV-1 RT and human RNase H were cloned, and thus comparative analysis of inhibitor action could be conducted simultaneously.
The assay for RNase H activity of HIV reverse transcriptase was the fluorescence-based assay described in detail in the Experimental section and discussed in U.S. Provisional Patent Application Serial No. 60/318,359. Assays were carried out in the absence and in the presence of mappicine analogs (10 μM or 20 μM final concentration). The results are reported as % residual activity, which is the RNase H activity of the enzyme in the presence of the mappicine analog divided by the RNase H activity of the enzyme in the absence of the mappicine analog, multiplied by 100. Alternatively, the results are reported as % inhibition, which is calculated as the ratio of the RNase H activity of the enzyme in the presence of the mappicine analog to the enzyme activity in the absence of the mappicine analog, multiplied by 100, and then subtracting this number from 100.
Assay for Ribonuclease H Activity Based on Fluorescence Resonance Energy Transfer (FRET)
Preparation of the Fluorophore-RNA/Quencher-DNA Hybrid Duplex Substrate.
The RNA/DNA hybrid duplex substrate for use in the assay comprises an RNA oligonucleotide of sequence 5′-GAU CUG AGC CUG GGA GCU-3′, modified at the 3′-end with Aminolink-2 and derivatized with fluorescein isothiocyanate, to provide a modified RNA oligonucleotide of the sequence 5′-GAU CUG AGC CUG GGA GCU-fluorescein-3′, annealed to a complementary DNA oligonucleotide of the sequence 5′-AGC TCC CAG GCT CAG ATC-3′ modified at the 5′-end with Aminolink-2 and derivatized with the FRET acceptor DABCYL succinimidyl ester, to provide a modified DNA oligonucleotide of the sequence 5′-DABCYL-AGC TCC CAG GCT CAG ATC-3′.
To prepare the 3′-fluorescein-RNA/5′-DABCYL-DNA hybrid duplex substrate, a known amount of 3′-fluorescein-RNA was dissolved in 20 mM Tris buffer (pH 8.0, 37° C.) to provide a final concentration of 5 μM. Two equivalents of the 5′-DABCYL-DNA oligonucleotide were added, and the mixture was heated to 90° C. for 5 min and cooled slowly to room temperature to allow duplex formation. The positioning of the fluorescein donor at the 3′-end of the RNA oligonucleotide and the DABCYL acceptor at the 5′-end of the DNA oligonucleotide provides a very close proximity of the donor and acceptor that results in a very intense quenching of the fluorescein emission in the intact RNA/DNA hybrid duplex substrate due to the spectral overlap of the fluorescence emission of fluorescein with the absorption spectrum of DABCYL. In addition, DABCYL is non-fluorescent, and thus cannot contribute any light emission. Both of these factors result in a very low background and provide a high signal-to-noise in the assay measurements. The ratio of the donor fluorescence in the absence and in the presence of its quencher is approximately fifteen-fold.
Microplate Assay Protocol for the Measurement of RNase H Activity Using the RNA/IDNA Hybrid Duplex Substrate.
Reaction assay mixtures contained 5 μl of a stock solution of 2.5 μM RNA/DNA hybrid duplex substrate added to 85 μl of assay buffer (50 mM Tris, pH 8.0, 37° C., containing 60 mM KCl and 2.5 mM MgCl2), prepared in the wells of a 96-well fluorescence microtiter plate, and warmed to 37° C. using the temperature control of the SpectraMax Gemini XS microplate spectrofluorometer (Molecular Devices). Reactions were started by the addition of 5 μl of a solution of recombinant HIV-1 reverse transcriptase (usually providing a final concentration of 2.5 nM of the p51/p66 RT heterodimer in the assay), and mixing using the automatic mixing function of the microplate spectrofluorometer. […]

[2] = molecular target: T2, RNA-dependent DNA polymerase activity of HIV reverse transcriptase (Human immunodeficiency virus type 1 group M subtype B, UniProt P03366); assay: RNA-dependent DNA polymerase activity assay of HIV reverse transcriptase; type: biochemical, HIV-1; details: 10 μM inhibitor concentration, activity in presence / in absence of analog x 100
T2 construct: made in house
Method: In separate representative assays, mappicine analogs were tested for their ability to inhibit the RNA-dependent DNA polymerase activity of HIV reverse transcriptase and for their ability to inhibit the RNase H activity of HIV reverse transcriptase. The assay for RNA-dependent DNA polymerase activity is discussed in Borkow, G. et al., “Inhibition of the Ribonuclease H and DNA Polymerase Activities of HIV-1 Reverse Transcriptase by N-(4-tert-Butylbenzoyl)-2-hydroxy-1-naphthaldehyde Hydrazone,” Biochemistry 1997, 36, 3179-3185, a copy of which is attached hereto and the disclosure of which is incorporated herein by reference. Assays were carried out in the absence and in the presence of mappicine analogs (10 μM final concentration). The results are reported as % residual activity, which is the RNA-dependent DNA polymerase activity of the enzyme in the presence of the mappicine analog divided by the RNA-dependent activity of the enzyme in the absence of the mappicine analog, multiplied by 100.

| SMILES | Residual activity (%) RNase H [1] | Residual activity (%) Polymerase [2] | Residual activity (%) RNase H ([1]; 10 µM) | Residual activity (%) Polymerase ([2]; 10 µM) | % inhibition of RNase H at 20 μM [1] |
| --- | --- | --- | --- | --- | --- |
| CCC(O)c1cc2n(c(=O)c1C)Cc1c-2nc2ccc(F)cc2c1-c1ccccc1 (stereo not shown) [5 (3Bα)] | 83% | 54% | – | – | – |
| Cc1c(C(=O)C(C)(C)C)cc2n(c1=O)Cc1c-2nc2ccc(F)cc2c1[Si](C)(C)C [5 (5Bβκ)] | 100% | 63% | – | – | – |
| CCC(=O)c1cc2n(c(=O)c1C)Cc1c-2nc2ccccc2c1[Si](C)(C)C(C)(C)C [5 (4Aακ)] | 76% | 43% | – | – | – |
| CCCCCCc1c2c(nc3ccccc13)-c1cc(C(O)C(C)(C)C)c(C)c(=O)n1C2 (stereo not shown) [5 (8Aβ)] | 91% | 103% | – | – | – |
| CCC(O)c1cc2n(c(=O)c1C)Cc1c-2nc2ccccc2c1[Si](C)(C)C (stereo not shown) [5 (5Aα)] | – | – | 93% | 32% | – |
| CCC(O)c1cc2n(c(=O)c1C)Cc1c-2nc2ccc(F)cc2c1[Si](C)(C)C (stereo not shown) [5 (5Bα)] | 105% | 82% | – | – | – |
| CCC(=O)c1cc2n(c(=O)c1C)Cc1c-2nc2ccc(F)cc2c1-c1ccccc1 [5 (3Bακ)] | 94% | 100% | – | – | – |
| CCCCCCc1c2c(nc3ccc(F)cc13)-c1cc(C(O)C(C)(C)C)c(C)c(=O)n1C2 (stereo not shown) [5 (8Bβ)] | 97% | 50% | – | – | – |
| CCCCCCc1c2c(nc3ccc(OC)cc13)-c1cc(C(=O)C(C)(C)C)c(C)c(=O)n1C2 [5 (8Dβκ)] | 88% | 90% | – | – | – |
| CCC(=O)c1cc2n(c(=O)c1C)Cc1c-2nc2ccc(OC)cc2c1[Si](C)(C)C(C)(C)C [5 (4Dακ)] | 77% | 80% | – | – | – |
| Cc1c(C(=O)CCC2CCCCC2)cc2n(c1=O)Cc1c-2nc2ccccc2c1-c1ccccc1 [5 (3Aδκ)] | 73% | 66% | – | – | – |
| CCCCCCc1c2c(nc3ccc(C)cc13)-c1cc(C(=O)CC)c(C)c(=O)n1C2 [5 (8Cακ)] | 92% | 31% | – | – | – |
| Cc1ccc2nc3c(c(-c4ccccc4)c2c1)Cn1c-3cc(C(O)C(C)(C)C)c(C)c1=O (stereo not drawn) [5 (30β)] | 84% | 70% | – | – | – |
| COc1ccc2nc3c(c([Si](C)(C)C(C)(C)C)c2c1)Cn1c-3cc(C(=O)C(C)(C)C)c(C)c1=O [5 (4Dβκ)] | 97% | 64% | – | – | – |
| Cc1c(C(O)Cc2ccccc2)cc2n(c1=O)Cc1c-2nc2ccc(F)cc2c1-c1ccccc1 (stereo not shown) [5 (3Bε)] | 91% | 28% | – | – | – |
| Cc1ccc2nc3c(c([Si](C)(C)C)c2c1)Cn1c-3cc(C(O)CCC2CCCCC2)c(C)c1=O (stereo not shown) [5 (5Cδ)] | 103% | 41% | – | – | – |
| Cc1c(C(O)C(C)(C)C)cc2n(c1=O)Cc1c-2nc2ccc(F)cc2c1[Si](C)(C)C(C)(C)C (stereo not shown) [5 (4Bβ)] | 113% | 49% | – | – | – |

| SMILES | Residual activity (%) RNase H [1] | Residual activity (%) Polymerase [2] | Residual activity (%) RNase H ([1]; 10 µM) | Residual activity (%) Polymerase ([2]; 10 µM) | % inhibition of RNase H at 20 μM [1] |
| --- | --- | --- | --- | --- | --- |
| COc1ccc2nc3c(c([Si](C)(C)C(C)(C)C)c2c1)Cn1c-3cc(C(O)CCC2CCCCC2)c(C)c1=O (stereo not shown) [5 (4Dδ)] | 87% | 51% | – | – | – |
| Cc1ccc2nc3c(c([Si](C)(C)C)c2c1)Cn1c-3cc(C(=O)C(C)(C)C)c(C)c1=O [5 (5Cβκ)] | 92% | 76% | – | – | – |
| Cc1ccc2nc3c(c([Si](C)(C)C(C)(C)C)c2c1)Cn1c-3cc(C(=O)CCC2CCCCC2)c(C)c1=O [5 (4Cδκ)] | 96% | 52% | – | – | – |
| CCCCCCc1c2c(nc3ccccc13)-c1cc(C(=O)CCC3CCCCC3)c(C)c(=O)n1C2 [5 (8Aδκ)] | 97% | 63% | – | – | – |
| Cc1c(C(O)CCC2CCCCC2)cc2n(c1=O)Cc1c-2nc2ccccc2c1-c1ccccc1 (stereo not shown) [5 (3Aδ)] | 104% | 32% | – | – | – |
| COc1ccc2nc3c(c([Si](C)(C)C)c2c1)Cn1c-3cc(C(O)CCC2CCCCC2)c(C)c1=O (stereo not shown) [5 (5Dδ)] | 96% | 57% | – | – | – |
| Cc1c(C(O)CCC2CCCCC2)cc2n(c1=O)Cc1c-2nc2ccc(F)cc2c1-c1ccccc1 (stereo not shown) [5 (3Bδ)] | 99% | 81% | – | – | – |
| CCCCCCc1c2c(nc3ccccc13)-c1cc(C(=O)C(C)(C)C)c(C)c(=O)n1C2 [5 (8Aβκ)] | 96% | 76% | – | – | – |
| Cc1c(C(O)CCC2CCCCC2)cc2n(c1=O)Cc1c-2nc2ccc(Cl)cc2c1-c1ccccc1 (stereo not shown) [Compound 7.8.6] | – | – | – | – | 90% |
| CCc1c2c(nc3ccccc13)-c1cc(C(O)C3CCCCC3)c(C)c(=O)n1C2 (stereo not shown) [Compound 6.4.1] | – | – | – | – | 65% |
| CCCCc1c2c(nc3ccc(OC)cc13)-c1cc(C(O)CCC)c(C)c(=O)n1C2 (stereo not shown) [Compound 2.6.3] | – | – | – | – | 67% |
| CCCCCc1c2c(nc3ccccc13)-c1cc(C(O)C3CCCCC3)c(C)c(=O)n1C2 (stereo not shown) [Compound 6.7.1] | – | – | – | – | 71% |
| CCC(C)C(O)c1cc2n(c(=O)c1C)Cc1cc3cc(OC(F)(F)F)ccc3nc1-2 (stereo not shown) [Compound 4.1.7] | – | – | – | – | 55% |
| CCc1c2c(nc3ccc(C)cc13)-c1cc(C(O)C(C)CC)c(C)c(=O)n1C2 (stereo not shown) [Compound 4.4.9] | – | – | – | – | 60% |
| CCC(C)C(O)c1cc2n(c(=O)c1C)Cc1c-2nc2ccc(C(F)(F)F)cc2c1-c1ccccc1 (stereo not shown) [Compound 4.8.4] | – | – | – | – | 74% |
| CCCc1c2c(nc3c(F)cccc13)-c1cc(C(O)CCC3CCCCC3)c(C)c(=O)n1C2 (stereo not shown) [Compound 7.5.8] | – | – | – | – | 82% |
